Our source for the EC50 and IC90 values is US20240228488A1 (TAKEDA PHARMACEUTICAL COMPANY LIMITED, priority 2021, published 2024).

Assay [1] addresses human activated kallikrein enzyme (Homo sapiens, UniProt P03952). As to the kind of experiment: Plasma kallikrein inhibition, fluorogenic PFR-AMC substrate, 500 pM activated kallikrein format. Format: biochemical. To be noted: 500 pM activated kallikrein, 300 uM PFR-AMC, 30 min preincubation, 10 min reaction; read-out: Primary Dose Response Assay: Average EC50. In outline: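 High-enzyme format of the fluorogenic peptide assay, with EC50 taken from AMC signal: 500 pM activated kallikrein, 300 uM Pro-Phe-Arg-AMC, 30 min compound preincubation and 10 min reaction, all at room temperature, pH 7.5.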

Assay [2] addresses T1, plasma kallikrein (Homo sapiens, UniProt P03952).
T1 construct: from tissue
Nature of the assay: Neat human plasma assay, FXIIa contact pathway-activated, PFR-AMC substrate. Format: biochemical. The conditions noted are these: citrated human plasma 78% final, 10 nM human FXIIa, 100 μM PFR-AMC; read-out: Human Plasma Assay: IC90. In outline:
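Compound inhibition of plasma kallikrein measured as PFR-AMC (100 μM) cleavage rate over 5 min at room temperature in 78% citrated human plasma activated with 10 nM FXIIa (Tris pH 7.5 buffer). IC50/IC90 from 4-parameter fit of rate versus inhibitor concentration.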

T1 sequence (P03952 391-638 limits assumed): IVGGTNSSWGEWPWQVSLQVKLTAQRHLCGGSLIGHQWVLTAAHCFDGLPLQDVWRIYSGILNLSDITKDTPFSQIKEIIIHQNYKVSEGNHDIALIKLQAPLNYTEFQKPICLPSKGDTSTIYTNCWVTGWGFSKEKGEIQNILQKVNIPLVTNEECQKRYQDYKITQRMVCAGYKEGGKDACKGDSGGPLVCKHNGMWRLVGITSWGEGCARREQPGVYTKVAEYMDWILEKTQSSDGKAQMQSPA
T1 sequence (P03952 20-390 partner limits assumed): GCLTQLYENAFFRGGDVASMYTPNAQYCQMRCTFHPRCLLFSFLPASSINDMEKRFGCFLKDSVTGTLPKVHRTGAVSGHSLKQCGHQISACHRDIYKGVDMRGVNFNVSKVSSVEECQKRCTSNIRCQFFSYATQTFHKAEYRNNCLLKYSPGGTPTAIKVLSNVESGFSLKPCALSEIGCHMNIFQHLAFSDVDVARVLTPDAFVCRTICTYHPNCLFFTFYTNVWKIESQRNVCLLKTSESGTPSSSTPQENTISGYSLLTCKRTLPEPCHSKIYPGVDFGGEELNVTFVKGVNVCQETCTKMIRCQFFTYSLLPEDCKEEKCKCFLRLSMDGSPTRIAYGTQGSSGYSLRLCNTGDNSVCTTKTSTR
Sequence of human activated kallikrein enzyme (P03952 391-638 limits assumed): as the sequence (P03952 391-638 limits assumed) above
Sequence of human activated kallikrein enzyme (P03952 20-390 partner limits assumed): as the sequence (P03952 20-390 partner limits assumed) above

For `CN(C)C1CCN(c2cc(C3CC3)cn3cc(CNc4cc(NC(=O)[C@H]5C[C@@H]5c5cccc(Cl)c5)ncn4)nc23)C1` (mixture of isomers) [Example I-13, (1S,2S)-2-(3-chlorophenyl)-N-(6-(((6-cyclopropyl-8-(3-(dimethylamino)pyrrolidin-1-yl)imidazo[1,2-a]pyridin-2-yl)methyl)amino)pyrimidin-4-yl)cyclopropane-1-carboxamide], the 50% effective concentration (EC50) – broadly, the concentration at which the effect is half-maximal – in assay [1] is 0.001 to 0.01 µM. For the same compound, in assay [2], the IC90 (usually the concentration at which the effect reaches the 90% level) fell in the range of 1.5 to 10 µM.

Turning to `CN1C(=O)CN(c2cc(C3CC3)cn3cc(CNc4cc(NC(=O)[C@H]5C[C@@H]5c5nccc(Cl)n5)ncn4)nc23)C1=O` (racemic) [Example I-168, rac-(1S*,2S*)-2-(4-chloropyrimidin-2-yl)-N-(6-(((6-cyclopropyl-8-(3-methyl-2,4-dioxoimidazolidin-1-yl)imidazo[1,2-a]pyridin-2-yl)methyl)amino)pyrimidin-4-yl)cyclopropane-1-carboxamide], in assay [1], the EC50 is below 0.001 µM. In addition, the IC90 in assay [2] was 0.4 to 1.5 µM.

For the compound `NCc1cc(C2CC2)cn2cc(CNc3ccnc(NC(=O)[C@H]4C[C@@H]4c4cccc(Cl)c4)c3)nc12` [Example 293, (1S,2S)—N-(4-(((8-(aminomethyl)-6-cyclopropylimidazo[1,2-a]pyridin-2-yl)methyl)amino)pyridin-2-yl)-2-(3-chlorophenyl)cyclopropane-1-carboxamide], the EC50 in assay [1] is below 0.001 µM. Besides, in assay [2], the IC90 was 1.5 to 10 µM.

`O=C1CN(c2cc(C3CC3)cn3cc(CNc4cc(NC(=O)[C@H]5C[C@@H]5c5cc(Cl)ccn5)ncn4)nc23)C(=O)N1` [Example 395, (1S,2S)-2-(4-chloropyridin-2-yl)-N-(6-(((6-cyclopropyl-8-(2,4-dioxoimidazolidin-1-yl)imidazo[1,2-a]pyridin-2-yl)methyl)amino)pyrimidin-4-yl)cyclopropane-1-carboxamide]: the EC50 in assay [1] was below 0.001 µM. Besides, the IC90 in assay [2] is below 0.4 µM.

For `O=C(Nc1nsc(NCc2cn3cc(C4CC4)ccc3n2)n1)[C@H]1C[C@@H]1c1cccc(Cl)c1` [Example 610, (1S,2S)-2-(3-chlorophenyl)-N-(5-(((6-cyclopropylimidazo[1,2-a]pyridin-2-yl)methyl)amino)-1,2,4-thiadiazol-3-yl)cyclopropane-1-carboxamide], in assay [1], the EC50 fell in the range of 0.001 to 0.01 µM. In assay [2], the IC90 fell in the range of 10 to 48 µM.

Consider `Cc1ccnc([C@H]2C[C@@H]2C(=O)Nc2cc(NCc3cn4cc(C5CC5)cc(-n5c(=O)n(C)c(=O)n5C)c4n3)ncn2)n1` [Example 367, (1S,2S)-N-(6-(((6-cyclopropyl-8-(2,4-dimethyl-3,5-dioxo-1,2,4-triazolidin-1-yl)imidazo[1,2-a]pyridin-2-yl)methyl)amino)pyrimidin-4-yl)-2-(4-methylpyrimidin-2-yl)cyclopropane-1-carboxamide], for which, in assay [1], the concentration for a half-maximal effect (EC50) is below 0.001 µM. For the same compound, the IC90 in assay [2] was in the range of 0.4 to 1.5 µM.

`CN1CCN(c2cc(C3CC3)cn3cc(CNc4ccnc(NC(=O)[C@@H]5C[C@H]5c5cc(Cl)ccc5C#N)c4)nc23)CC1` (racemic) [Example 143, rac-(1S*,2S*)-2-(5-chloro-2-cyanophenyl)-N-(4-(((6-cyclopropyl-8-(4-methylpiperazin-1-yl)imidazo[1,2-a]pyridin-2-yl)methyl)amino)pyridin-2-yl)cyclopropane-1-carboxamide]: the EC50 in assay [1] was below 0.001 µM. Further, the concentration for an effect of 90% (IC90) in assay [2] lay within 0.4 to 1.5 µM.

In the case of `Cc1cccc([C@H]2C[C@@H]2C(=O)Nc2cc(NCc3cn4cc(C5CC5)cc(N5CC(=O)N(C)C5=O)c4n3)ncn2)n1` (racemic) [Example 500, rac-(1S*,2S*)-N-(6-(((6-cyclopropyl-8-(3-methyl-2,4-dioxoimidazolidin-1-yl)imidazo[1,2-a]pyridin-2-yl)methyl)amino)pyrimidin-4-yl)-2-(6-methylpyridin-2-yl)cyclopropane-1-carboxamide], the EC50 in assay [1] is below 0.001 µM. Also, the IC90 in assay [2] lay within 0.4 to 1.5 µM.

Take `Cc1ccnc([C@H]2C[C@@H]2C(=O)Nc2nc(NCc3cn4cc(C5CC5)cc(N5CC(=O)N(C)C5=O)c4n3)nc(C3CC3)n2)n1` (racemic) [Example 523, rac-(1S*,2S*)-N-(4-cyclopropyl-6-(((6-cyclopropyl-8-(3-methyl-2,4-dioxoimidazolidin-1-yl)imidazo[1,2-a]pyridin-2-yl)methyl)amino)-1,3,5-triazin-2-yl)-2-(4-methylpyrimidin-2-yl)cyclopropane-1-carboxamide]: in assay [1], the EC50 is below 0.001 µM. Further, the IC90 in assay [2] is below 0.4 µM.

With `CN1C(=O)CN(c2cc(C3CC3)cn3cc(CN(C)c4cnnc(NC(=O)[C@H]5C[C@@H]5c5cccc(Cl)c5)c4)nc23)C1=O` [Example I-641, (1S,2S)-2-(3-chlorophenyl)-N-(5-(((6-cyclopropyl-8-(3-methyl-2,4-dioxoimidazolidin-1-yl)imidazo[1,2-a]pyridin-2-yl)methyl)(methyl)amino)pyridazin-3-yl)cyclopropane-1-carboxamide], the concentration giving a half-maximal response (EC50) in assay [1] is below 0.001 µM. Besides, in assay [2], the IC90 was 0.4 to 1.5 µM.

As for `Cc1ccnc([C@H]2C[C@@H]2C(=O)Nc2cncc(NCc3cn4cc(C5CC5)cc(N5CC(=O)N(C)C5=O)c4n3)c2)n1` (racemic) [Example 575, rac-(1S*,2S*)-N-(5-(((6-cyclopropyl-8-(3-methyl-2,4-dioxoimidazolidin-1-yl)imidazo[1,2-a]pyridin-2-yl)methyl)amino)pyridin-3-yl)-2-(4-methylpyrimidin-2-yl)cyclopropane-1-carboxamide], the EC50 in assay [1] is below 0.001 µM. Moreover, the IC90 in assay [2] is below 0.4 µM.

In the case of `O=C1CN(c2cc(C3CC3)cn3cc(CNc4cc(NC(=O)[C@H]5C[C@@H]5c5cc(Cl)ccn5)nc(O)n4)nc23)C(=O)N1` [Example 487, (1S,2S)-2-(4-chloropyridin-2-yl)-N-(6-(((6-cyclopropyl-8-(2,4-dioxoimidazolidin-1-yl)imidazo[1,2-a]pyridin-2-yl)methyl)amino)-2-hydroxypyrimidin-4-yl)cyclopropane-1-carboxamide], in assay [1], the EC50 was below 0.001 µM. Further, in assay [2], the IC90 is below 0.4 µM.

Take `Cc1ccnc([C@H]2C[C@@H]2C(=O)Nc2cc(N(C)Cc3cn4cc(C5CC5)cc(N5CC(=O)N(C)C5=O)c4n3)cnn2)n1` [Example I-254, (1S,2S)-N-(5-(((6-cyclopropyl-8-(3-methyl-2,4-dioxoimidazolidin-1-yl)imidazo[1,2-a]pyridin-2-yl)methyl)(methyl)amino)pyridazin-3-yl)-2-(4-methylpyrimidin-2-yl)cyclopropane-1-carboxamide]: the concentration for a half-maximal effect (EC50) in assay [1] is below 0.001 µM. Besides, the IC90 in assay [2] is below 0.4 µM.

Regarding `CCN(Cc1cn2cc(C3CC3)cc(N3CC(=O)N(C)C3=O)c2n1)c1cc(NC(=O)[C@H]2C[C@@H]2c2nccc(C)n2)nc(C)n1` [Example 360, (1S,2S)-N-(6-(((6-cyclopropyl-8-(3-methyl-2,4-dioxoimidazolidin-1-yl)imidazo[1,2-a]pyridin-2-yl)methyl)(ethyl)amino)-2-methylpyrimidin-4-yl)-2-(4-methylpyrimidin-2-yl)cyclopropane-1-carboxamide], the EC50 in assay [1] lay within 0.001 to 0.01 µM. In addition, the IC90 in assay [2] was in the range of 0.4 to 1.5 µM.

With `N#Cc1ccc(Cl)cc1[C@H]1C[C@@H]1C(=O)Nc1cc(NCc2cn3cc(C4CC4)cc(COCCO)c3n2)ccn1` (racemic) [Example 289, rac-(1S*,2S*)-2-(5-chloro-2-cyanophenyl)-N-(4-(((6-cyclopropyl-8-((2-hydroxyethoxy)methyl)imidazo[1,2-a]pyridin-2-yl)methyl)amino)pyridin-2-yl)cyclopropane-1-carboxamide], in assay [1], the EC50 is below 0.001 µM. In assay [2], the concentration for an effect of 90% (IC90) lay within 1.5 to 10 µM.

`CCN1CCN(c2cc(C3CC3)cn3cc(CNc4ccnc(NC(=O)[C@H]5C[C@@H]5c5cccc(Cl)c5)c4)nc23)CC1` [Example I-234, (1S,2S)-2-(3-chlorophenyl)-N-(4-(((6-cyclopropyl-8-(4-ethylpiperazin-1-yl)imidazo[1,2-a]pyridin-2-yl)methyl)amino)pyridin-2-yl)cyclopropane-1-carboxamide]: the EC50 in assay [1] is below 0.001 µM. Further, in assay [2], the concentration for an effect of 90% (IC90) was below 0.4 µM.

With `O=C(Nc1cc(NCc2cn3cc(C4CC4)cc(N4CCNCC4)c3n2)ncn1)[C@H]1C[C@@H]1c1cccc(Cl)c1` [Example 307, (1S,2S)-2-(3-chlorophenyl)-N-(6-(((6-cyclopropyl-8-(piperazin-1-yl)imidazo[1,2-a]pyridin-2-yl)methyl)amino)pyrimidin-4-yl)cyclopropane-1-carboxamide], the EC50 in assay [1] was below 0.001 µM. Moreover, the concentration for an effect of 90% (IC90) in assay [2] was below 0.4 µM.

In the case of `O=C(Nc1cc(NCc2cn3cc(C4CC4)cc(N4CCOC4=O)c3n2)ncn1)[C@H]1C[C@@H]1c1cc(Cl)ccn1` [Example I-172, (1S,2S)-2-(4-chloropyridin-2-yl)-N-(6-(((6-cyclopropyl-8-(2-oxooxazolidin-3-yl)imidazo[1,2-a]pyridin-2-yl)methyl)amino)pyrimidin-4-yl)cyclopropane-1-carboxamide], the half-maximal effective concentration (EC50) in assay [1] is below 0.001 µM. Moreover, the IC90 in assay [2] lay in the range of 0.4 to 1.5 µM.

Turning to `O=C(Nc1cc(NCc2cn3cc(C4CC4)ccc3n2)cc(=O)[nH]1)[C@H]1C[C@@H]1c1cc(Cl)ccn1` [Example 343, (1S,2S)-2-(4-chloropyridin-2-yl)-N-(4-(((6-cyclopropylimidazo[1,2-a]pyridin-2-yl)methyl)amino)-6-oxo-1,6-dihydropyridin-2-yl)cyclopropane-1-carboxamide], in assay [1], the concentration for a half-maximal effect (EC50) was below 0.001 µM. Also, the IC90 in assay [2] lay in the range of 1.5 to 10 µM.
